# Columns and labels:
# TrkB F616A = biological target: T1, TrkB F616A (Mus musculus, UniProt P15209, F616A); test: TrkB phosphorylation in cortical neurons from TrkB F616A knockin mice; type: cell-based; conditions: inhibitor pretreatment
# T1 construct: cortical neurons from TrkB F616A knockin mice; endogenous in cells; host or cells: primary cortical neurons from TrkB F616A knock-in mice
# Method: (§1) To explore whether the neuroprotective action of an identified active compound is dependent on TrkB activation in vivo, TrkB F616A knockin mice are used. […] To further assess whether an identified active compound can mimic BDNF, cortical neurons are prepared from TrkB F616A knockin mice. The cortical neurons are pretreated for 30 minutes with either K252a Trk tyrosine kinase inhibitor (100 nM) or 1NMPP1 inhibitor (100 nM) followed by 0.5 μM identified active compound for 30 minutes.
# (§2) […] inversely correlated with TrkB activation by deoxygedunin (FIG. 20, top and middle panels).
# Akt and Erk1/2 = Akt and Erk1/2 activation in cortical neurons from TrkB F616A knockin mice; type: cell-based, mouse
# Method: as §1, §2
# TrkB F616A knockin mice = test: KA-provoked apoptosis (caspase-3) in TrkB F616A knockin mice; type: in vivo, mouse
# Method: To determine if 1NMPP1 makes neurons treated with an identified active compound vulnerable to KA-provoked neuronal cell death, TrkF616A knockin mice are fed with 1NMPP1 (25 mM) in drinking water one day prior to pharmacological reagent treatment. The next day, the mice are intraperitoneally injected with KA (25 mg/kg), or an identified active compound (5 mg/kg) 4 hours prior to KA injection. The control mice are injected with either KA or an identified active compound alone, or the mice are administered an identified active compound 4 hours before KA. After 4 days, the mice are sacrificed and the brains are homogenized and ultracentrifuged. The supernatant then is employed for SDS-PAGE and immunoblotting analysis.
# as §2
# mice = test: Forced swim test; type: in vivo, mouse
# Method: To explore whether an identified active compound has an antidepressant effect like BDNF, a forced swim test is conducted. Adult male mice (2-3 months old) are randomly submitted, without a pre-swim, to a forced swim test of 6 minutes with immobility recorded in the last 4 minutes. The mice are injected intraperitoneally for 5 days with saline, imipramine (20 mg/kg), amitryptyline (15 mg/kg), or an identified active compound (5 mg/kg). The mice are allowed to adapt to the test room for 2 days, and the mice are placed in a clear glass cylinder with a diameter of 16 cm, half-filled with clear water at 24° C.
# To investigate whether deoxygedunin mimicked BDNF in suppressing depression-like symptoms, a forced swim test after subchronic treatment of the mice for 5 days with various drugs was conducted. […] To assess whether the behavior responses by 7,8-DHF and deoxygedunin were mediated by TrkB receptor, TrkB F616A knockin mice were used. The transgenic mice were subjected to saline or 1NMPP1 treatment, respectively.
# TrkB [1] = test: TrkB activation in cortical neurons from knockout mouse pups; type: cell-based; conditions: wild-type cortical neurons (pups of TrkB +/− mice)
# Method: (§3) To determine whether an identified active compound selectively activates TrkB receptor and prevents neuronal cell death, cortical neurons are prepared from homozygous pups of TrkB +/− mice, which are mated to the same genotype. The activation of TrkB and down stream indicators of TrkB activation, such as Capase-3, are monitored. To further assess whether an identified active compound blocks neuronal apoptosis in a TrkB dependent manner, cortical neurons are prepared from homozygous pups of […], which are mated to the same genotype. Again, the activation of TrkB and down stream indicators of TrkB activation, such as Capase-3, are monitored.
# (§4) Additionally, the spontaneous caspase-3 activation in […] was suppressed by deoxygedunin.
# caspase-3 = test: Caspase-3 activation in cortical neurons from knockout mouse pups; type: cell-based
# Method: as §3, §4
# TrkA = TrkA (Mus musculus, UniProt Q3UFB7); test: TrkA activation in cortical neurons from knockout mouse pups; type: cell-based; design: endogenous in cells; host or cells: primary cortical neurons from mouse pups; conditions: cortical neurons (pups of TrkB +/− mice)
# TrkB [2] = test: TrkB phosphorylation in hippocampal neurons (immunofluorescent staining, immunoblotting); type: cell-based; conditions: K252a pretreatment of hippocampal neurons
# Method: Unless specifically described, primary hippocampal neurons are seeded on poly-L lysine coated coverslips in a 12-well plate. After 7 days in vitro, the neurons are treated with 100 ng/ml BDNF or variety of flavone compounds (1 μM) for 30 minutes, and then are washed with PBS. Cells are fixed with 3% formaldehyde in PBS at room temperature for 10 minutes. The cells then are permeabilized and blocked by 0.4% Triton X-100 and 2% FBS in PBS at room temperature for 15 minutes, are washed with PBS three times, and are treated with anti-MAP2 (1:200) and anti-phospho-TrkB antibodies (1:500). After staining with FITC- or Rhodamine-conjugated secondary antibody, the coverslips are mounted on slides. Fluorescent images are taken by a fluorescence microscope.
# BDNF binding to TrkB induces its autophosphorylation and, subsequently, activation of downstream kinase pathways including MAPK and PI3/Akt. […] To examine whether an identified active compound stimulates TrkB-mediated downstream signaling cascades, Western analysis is performed and the activation of Akt and Erk also is monitored. […] To probe the time course of TrkB activation triggered by an identified active compound, hippocampal neurons are treated with an identified active compound at 500 nM and phosphorylation of Erk and Akt is determined over time by Western analysis. […]
# Erk1/2 and Akt = Erk1/2 and Akt activation in hippocampal neurons (Western blot); type: cell-based; conditions: K252a pretreatment of hippocampal neurons
# Method: BDNF binding to TrkB induces its autophosphorylation and, subsequently, activation of downstream kinase pathways including MAPK and PI3/Akt. To explore whether an identified active compound triggers TrkB activation, immunofluorescent staining on hippocampal neurons with anti-phospho TrkB antibody is conducted. To examine whether an identified active compound stimulates TrkB-mediated downstream signaling cascades, Western analysis is performed and the activation of Akt and Erk also is monitored. To test whether the stimulatory effect of an identified active compound is mediated through TrkB, cells are either untreated or treated with K252a, a selective inhibitor of the tyrosine kinase activity of the Trk family of neutrophin receptors. Cells treated with K252a block TrkB tyrosine phosphorylation in cells exposed to an identified active compound. To probe the time course of TrkB activation triggered by an identified active compound, hippocampal neurons are treated with an identified active compound at 500 nM and phosphorylation of Erk and Akt is determined over time by Western analysis. Whether stimulation of Erk and Akt by an identified active compound occurs in a dose dependent manner also is determined.
# Both Akt and Erk1/2 were robustly activated by these molecules as well). […] The minimal required drug concentration was about 100-250 nM (see FIG. 7, right panels). […] To assess whether deoxygedunin provokes TrkB activation in the brain, mice (i.p.) were injected with a dose of 5 mg/kg for various time points. […] To establish that deoxygedunin is orally bioactive in provoking TrkB activation, two to three month old C57BL/6J mice were orally injected with various doses of 7,8-dihydroxyflavone or deoxygedunin then sacrificed 2 to 4 hours after administration. Brain lysates were prepared and analyzed by immunoblotting (see FIG. 10).
# hippocampal neurons [3] = test: Glutamate-triggered apoptosis in hippocampal neurons (MR(DEVD)2 / condensed nuclei); type: cell-based; conditions: 0.5 μM preincubated 30 min, then 50 μM glutamate 16 h
# Method: To create and test reporter cell lines. In order to identify small molecules that mimic BDNF and activate TrkB, TrkB stably transfected murine cell lines are created. The T48 and T62 cell lines are created by transfecting basal forebrain SN56 cells, which express negligible TrkB, with a TrkB expression construct. To test expression of TrkB, the cells are treated with BDNF, which is predicted to result in strong phosphorylation of Trk-490 and Akt activation in comparison to the TrkA NTR stably expressing T17 cell line indicating expression of TrkB. To test resistance to apoptosis, the SN56 cells and the T48 cell line are either untreated or treated with BDNF, and then are subjected to an apoptotic assay. The apoptotic assay involves treating the cells with 0.75 μM Staurosporine for 9 hours, and 1 hour before completing the experiment, the cells are treated with 10 μM MR (DEVD)2. The cells then are fixed with 4% paraformaldehyde for 15 minutes, washed with phosphate buffered saline (PBS), and incubated with Hoechst 33342 for 10 minutes. Cover slides are washed with PBS, mounted, and then the cells are examined using a fluorescent microscope to see which cells turn red upon caspase cleavage.
# To compare the apoptosis inhibitory activity of identified active compounds, the compounds are preincubated with SN56 and T48 cells, and subsequently are subjected to the fluorescent apoptotic assay as described above. To examine whether these identified active compounds promote neuronal survival, hippocampal neurons are prepared and the cultures are pretreated with the identified active compounds for 30 minutes, followed by treatment with 50 μM glutamate for 16 hours.
# Using a cell-based screen as described above in Example 1 (based on the anti-apoptotic action of TrkB signaling) and the chemical library from the Spectrum Collection (described above), 66 positive hits were generated, four of which were gedunin derivatives. […] In this assay, neurons with both cleaved caspase (MR (DEVD)2 red cells) and condensed nuclei (DAPI staining) were counted as apoptotic cells. […]
# hippocampal neurons [4] = test: Oxygen-glucose deprivation (OGD) apoptosis in hippocampal neurons; type: cell-based; conditions: apoptotic ratio compared to BDNF and DMSO
# Sequence of TrkA (Q3UFB7 34-799): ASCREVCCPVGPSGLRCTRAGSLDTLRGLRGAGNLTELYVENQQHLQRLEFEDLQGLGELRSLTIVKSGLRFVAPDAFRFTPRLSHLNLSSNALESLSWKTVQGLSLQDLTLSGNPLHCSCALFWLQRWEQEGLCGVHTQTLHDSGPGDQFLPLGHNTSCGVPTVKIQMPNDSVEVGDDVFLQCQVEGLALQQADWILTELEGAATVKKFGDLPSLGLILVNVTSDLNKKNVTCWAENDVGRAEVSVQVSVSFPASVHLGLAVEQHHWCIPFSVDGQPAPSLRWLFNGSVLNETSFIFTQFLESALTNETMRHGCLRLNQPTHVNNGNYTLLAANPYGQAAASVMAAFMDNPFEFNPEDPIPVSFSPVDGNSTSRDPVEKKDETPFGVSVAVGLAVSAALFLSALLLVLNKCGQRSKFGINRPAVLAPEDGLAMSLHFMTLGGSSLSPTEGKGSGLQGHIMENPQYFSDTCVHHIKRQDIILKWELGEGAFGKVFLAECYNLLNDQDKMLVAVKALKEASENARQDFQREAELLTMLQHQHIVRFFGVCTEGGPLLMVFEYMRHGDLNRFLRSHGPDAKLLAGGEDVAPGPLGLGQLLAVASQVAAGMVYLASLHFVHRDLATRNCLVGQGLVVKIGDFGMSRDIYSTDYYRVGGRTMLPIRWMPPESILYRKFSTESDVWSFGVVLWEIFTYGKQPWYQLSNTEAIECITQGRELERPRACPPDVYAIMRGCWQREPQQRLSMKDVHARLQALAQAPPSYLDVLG
# T1 sequence (P15209 32-821 F616A): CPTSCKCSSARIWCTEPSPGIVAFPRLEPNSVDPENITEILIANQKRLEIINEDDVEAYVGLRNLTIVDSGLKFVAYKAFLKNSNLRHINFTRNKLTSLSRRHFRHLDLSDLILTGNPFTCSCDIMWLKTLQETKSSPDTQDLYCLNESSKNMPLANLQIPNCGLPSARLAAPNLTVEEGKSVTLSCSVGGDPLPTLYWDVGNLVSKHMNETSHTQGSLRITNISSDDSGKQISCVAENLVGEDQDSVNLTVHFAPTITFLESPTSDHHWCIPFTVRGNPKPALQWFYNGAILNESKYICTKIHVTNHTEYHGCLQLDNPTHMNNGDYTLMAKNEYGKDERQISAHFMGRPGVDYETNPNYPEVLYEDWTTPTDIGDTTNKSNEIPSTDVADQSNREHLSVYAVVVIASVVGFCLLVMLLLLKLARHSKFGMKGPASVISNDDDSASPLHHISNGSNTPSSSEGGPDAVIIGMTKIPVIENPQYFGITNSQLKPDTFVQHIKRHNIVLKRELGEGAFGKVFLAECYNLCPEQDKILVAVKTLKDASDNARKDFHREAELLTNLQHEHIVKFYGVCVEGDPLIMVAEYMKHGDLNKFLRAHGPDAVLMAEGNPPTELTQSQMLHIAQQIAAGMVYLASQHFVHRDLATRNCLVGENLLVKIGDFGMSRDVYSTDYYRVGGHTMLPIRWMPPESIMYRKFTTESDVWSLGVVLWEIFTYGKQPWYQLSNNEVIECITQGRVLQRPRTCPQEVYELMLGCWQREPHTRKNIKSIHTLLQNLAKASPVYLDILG
smiles,measurement,setting,value
CC(C)(C)n1nc(Cc2cccc3ccccc23)c2c(N)ncnc21 [1NMPP1],blockade of BDNF-provoked TrkB phosphorylation,TrkB F616A,selectively blocked
same,blockade of deoxygedunin provoked TrkB phosphorylation,TrkB F616A,selectively blocked
same,blockade of BDNF-triggered Akt and Erk1/2 activation,Akt and Erk1/2,blocked BDNF-triggered Akt and Erk1/2 activation
same,effect on Akt and Erk1/2 activation by deoxygedunin,Akt and Erk1/2,diminished Akt and Erk1/2 activation
same,effect of 1NMPP1 pretreatment on deoxygedunin's protective effect,"TrkB F616A knockin mice; F616A mice, KA",diminished deoxygedunin's protective effect
same,effect of 1NMPP1 pretreatment on KA-provoked apoptosis,TrkB F616A knockin mice; TrkB F616A mice,elevated KA-provoked apoptosis
same,"immobility time, 1NMPP1-treated versus saline","mice; TrkB F616A knockin mice, no test drug",No significant difference
"O=c1cc(-c2ccccc2)oc2c(O)c(O)ccc12 [7,8-dihydroxyflavone]",TrkB activation,TrkB [1],selectively activated TrkB
same,blockade of glutamate-provoked caspase-3 activation,caspase-3; TrkB −/− cortical neurons,not TrkB −/− neurons
same,blockade of glutamate-provoked caspase-3 activation,caspase-3; wild-type cortical neurons,substantially blocked
same,TrkA activation,TrkA,not TrkA
COC(=O)[C@@]1(O)C[C@H]2O[C@]1(C)n1c3ccccc3c3c4c(c5c6ccccc6n2c5c31)C(=O)NC4 [K252a],blockade of deoxygedunin-triggered TrkB activation,TrkB [2],substantially blocked
same,blockade of deoxygedunin-provoked downstream Akt and MAPK signalings,Erk1/2 and Akt,blocked
same,blockade of BDNF-provoked TrkB phosphorylation,TrkB F616A,not K252a
same,blockade of deoxygedunin provoked TrkB phosphorylation,TrkB F616A,not K252a
same,blockade of BDNF-triggered Akt and Erk1/2 activation,Akt and Erk1/2,not K252a
CN(C)CCC=C1c2ccccc2CCc2ccccc21 [amitriptyline],TrkB activation,TrkB [1],activated both TrkA and TrkB
same,blockade of glutamate-provoked caspase-3 activation,caspase-3; TrkB −/− cortical neurons,weakly suppressed caspase-3 activation
same,blockade of glutamate-provoked caspase-3 activation,caspase-3; wild-type cortical neurons,weakly suppressed caspase-3 activation
same,TrkA activation,TrkA,activated both TrkA and TrkB
CC(=O)O[C@@H]1CC2C(C)(C)C(=O)CC[C@]2(C)C2CC[C@]3(C)C(=CC(=O)O[C@H]3c3ccoc3)[C@@]21C (some centres unmarked) [dihydrodeoxygedunin],protective effect (apoptosis inhibitory activity),hippocampal neurons [3],protective effect
same,protective effects on hippocampal neurons under OGD,hippocampal neurons [4],potent protective effects
"CN(C)CCCN1c2ccccc2CCc2ccccc21 [imipramine, reference compound]",TrkB activation,TrkB [1],not imipramine
same,blockade of glutamate-provoked caspase-3 activation,caspase-3; wild-type cortical neurons,failed to block caspase-3 activation
same,swimming immobility,"mice; mice, subchronic treatment 5 days, imipramine 20 mg/kg, deoxygedunin 5 mg/kg",significantly decreased
same,TrkA activation,TrkA,not imipramine

# From US8609870B2, “Treating various disorders using TrkB agonists” (Emory University, priority 2008, dated 2013)
